Target: human O-GlcNAc-β-N-acetylglucosaminidase (OGA) (Homo sapiens (Human), UniProt O60502)
Assay: In Vitro Human OGA Enzyme Assay
Assay type: biochemical
Settings: full-length His-tagged human OGA; FD-GlcNAc substrate 6.7 μM; 30 min pre-incubation, 60 min reaction, pH 7
Protocol: The nucleotide sequence encoding full-length human O-GlcNAc-β-N-acetylglucosaminidase (NM_012215) is inserted into pFastBacl (Invitrogen) vector with an N-terminal poly-histidine (HIS) tag. Baculovirus generation is carried out according to the Bac-to-Bac Baculovirus Expression system (Invitrogen) protocol. Sf9 cells are infected at 1.5×10^6 cells/mL using 10 mL of P1 virus per Liter of culture and incubated at 28° C. for 48 hrs. Cells are spun down, rinsed with PBS and the pellets stored at −80° C. The above OGA protein (His-OGA) is purified as follows: 4 L of cells are lysed in 200 mL of buffer containing 50 mM Tris, pH 8.0, 300 mM NaCl, 10% glycerol, 10 mM imidazole, 1 mM dithiothreitol (DTT), 0.1% Triton™ X-100, 4 tablets of protease inhibitors (complete EDTA-Free, Roche) for 45 min at 4° C. This cell lysate is then spun for 40 min at 16500 rpm at 4° C., and supernatant incubated with 6 mL of Ni-NTA resin (nickel-nitrilotriacetic acid) for 2 hours at 4° C.
Resin is then packed onto column and washed with 50 mM Tris, pH 8.0, 300 mM NaCl, 10% glycerol, 10 mM imidazole, 0.1% Triton™ X-100, 1 mM DTT, followed by 50 mM Tris, pH 8.0, 150 mM NaCl, 10 mM imidazole, 10% glycerol, 1 mM DTT. The proteins are eluted with 50 mM Tris, pH 8.0, 150 mM NaCl, 300 mM imidazole, 10% glycerol, 1 mM DTT. Pooled His-OGA containing fractions are concentrated to 6 ml and loaded onto Superdex75 (16/60). The protein is eluted with 50 mM Tris, pH 8.0, 150 mM NaCl, 10% glycerol, 2 mM DTT. Fractions containing His-OGA are pooled and protein concentration measured with BCA ([…]).
The OGA enzyme catalyses the removal of O-GlcNAc from nucleocytoplasmic proteins. To measure this activity Fluorescein di-N-acetyl-β-N-acetyl-D-glucosaminide (FD-GlcNAc, Kim, Eun Ju; Kang, Dae Ook; Love, Dona C.; Hanover, John A. Carbohydrate Research (2006), 341(8), 971-982) is used as a substrate at a final concentration of 6.7 μM (in a 384 well assay format). This fluorogenic substrate becomes fluorescent upon cleavage by OGA, so that the enzyme activity can be measured by the increase in fluorescence detected at 535 nm (excitation at 485 nm).
The assay buffer is prepared to give a final concentration of 50 mM […], 0.01% bovine serum albumin and 0.01% Triton™ X-100 in water, at pH 7. Compounds to be tested are diluted in pure dimethyl sulfoxide (DMSO) using ten point concentration response curves. Maximal compound concentration in the reaction mixture is 30 or 1 μM. […] Then, without stopping the reaction, fluorescence is read. IC50 values are calculated by plotting the normalized data vs. log of the compound and fitting the data using a four parameter logistic equation.

human O-GlcNAc-β-N-acetylglucosaminidase (OGA), sequence (O60502 whole entry): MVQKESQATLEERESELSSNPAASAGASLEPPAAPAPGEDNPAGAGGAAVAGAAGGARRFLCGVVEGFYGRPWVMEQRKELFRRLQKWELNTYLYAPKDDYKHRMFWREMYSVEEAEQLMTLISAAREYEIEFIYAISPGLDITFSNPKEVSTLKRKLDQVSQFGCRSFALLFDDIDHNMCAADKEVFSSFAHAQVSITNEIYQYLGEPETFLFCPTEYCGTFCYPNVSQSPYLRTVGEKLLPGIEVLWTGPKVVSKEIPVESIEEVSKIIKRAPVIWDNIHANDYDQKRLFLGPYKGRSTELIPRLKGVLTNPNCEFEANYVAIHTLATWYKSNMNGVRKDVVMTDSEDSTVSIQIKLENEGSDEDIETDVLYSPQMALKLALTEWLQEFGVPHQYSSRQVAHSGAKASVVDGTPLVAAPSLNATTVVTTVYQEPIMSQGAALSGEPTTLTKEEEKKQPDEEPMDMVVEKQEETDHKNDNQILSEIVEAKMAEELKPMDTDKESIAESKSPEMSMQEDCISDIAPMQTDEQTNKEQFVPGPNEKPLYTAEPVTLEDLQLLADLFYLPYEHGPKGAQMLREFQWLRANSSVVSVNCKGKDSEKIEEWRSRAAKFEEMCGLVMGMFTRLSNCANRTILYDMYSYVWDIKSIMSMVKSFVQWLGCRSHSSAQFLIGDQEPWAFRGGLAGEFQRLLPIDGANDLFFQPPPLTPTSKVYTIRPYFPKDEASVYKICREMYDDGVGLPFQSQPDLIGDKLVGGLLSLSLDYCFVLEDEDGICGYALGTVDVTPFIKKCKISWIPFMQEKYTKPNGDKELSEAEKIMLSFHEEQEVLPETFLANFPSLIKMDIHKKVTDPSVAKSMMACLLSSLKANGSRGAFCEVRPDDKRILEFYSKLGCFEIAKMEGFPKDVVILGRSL

IC50 [nM]	Structure (SMILES)
611	Cc1nnc(C2CCN(C(C)c3ccc4c(n3)OCC4)CC2)o1 (single isomer, unassigned; (+)) [Example 3]
2660 ± 607	Cc1nnc(C2CCN(C(C)c3nc4c(cc3F)CCO4)CC2)o1 (single isomer, unassigned; (+)) [Example 4, (+)-5-fluoro-6-[1-[4-(5-methyl-1,3,4-oxadiazol-2-yl)-1-piperidyl]ethyl]-2,3-dihydrofuro[2,3-b]pyridine]
1.24 ± 0.66	Cc1nnc(C2CCN(C(C)c3ccc4c(n3)OCC4)CC2)o1 (single isomer, unassigned; (-)) [Example 1, (−)-6-[1-[4-(5-methyl-1,3,4-oxadiazol-2-yl)-1-piperidyl]ethyl]-2,3-dihydrofuro[2,3-b]pyridine]
1.13 ± 1.02	Cc1nnc(C2CCN(C(C)c3nc4c(cc3F)CCO4)CC2)o1 (single isomer, unassigned; (-)) [Example 2, (−)-5-fluoro-6-[1-[4-(5-methyl-1,3,4-oxadiazol-2-yl)-1-piperidyl]ethyl]-2,3-dihydrofuro[2,3-b]pyridine]
